Results published in patent publication US20060069132A1, “Azolecarboxamide herbicides” (priority 2004, published 2006).

How the values were obtained:
large crabgrass = experiment: Test E pre-/postemergence herbicide test; type: in vivo, Digitaria sanguinalis
Source text: (§1) Seeds of plant species selected from bipinnate beggarticks (Bidens bipinnata L.), hairy beggarticks (Bidens radiata Thuill.), bermudagrass (Cynodon dactylon (L.) Pers.), Surinam grass (Urochloa decumbens (Staph) R. D. Webster, previously named Brachiaria decumbens Stapf), large crabgrass (Digitaria sanguinalis (L.) Scop.), green foxtail (Setaria viridis (L.) P. Beauv.), goosegrass (Eleusine indica (L.) Gaertn.), johnsongrass (Sorghum halepense (L.) Pers.), kochia (Kochia scoparia (L.) Schrad.), pitted morningglory (Ipomoea lacunosa L.), purple nutsedge (Cyperus rotundus L.), common ragweed (Ambrosia elatior L.), mustard (Brassica nigra (L.) W. D. J. Koch), guineagrass (Panicum maximum Jacq.), dallisgrass (Paspalum dilatatum Poir.), barnyardgrass (Echinochloa crus-galli (L). P. Beauv.), southern sandbur (Cenchrus echinatus L.), common sowthistle (Sonchus oleraceous L.), prickly sida (Sida spinosa L.), Italian ryegrass (Lolium multiflorum Lam.), common purslane (Portulaca oleracea L.), broadleaf signalgrass (Brachiaria platyphylla (Griseb.) Nash), common groundsel (Senecio vulgaris L.), common chickweed (Stellaria media (L.) Vill/Cyr.), tropical spiderwort (Commelina benghalensis L.), annual bluegrass (Poa annua L.), downy bromegrass (Bromus tectorum L.), itchgrass (Rottboellia cochinchinensis (L.) L.f.), quackgrass (Elytrigia repens (L.) Nevski), Canada horseweed (Erigeron Canadensis L.), field bindweed (Convolvulus arvensis L.), spotted spurge (Euphorbia maculata L.), common mallow (Malva sylvestris (=s silvestris) L.), and Russian thistle (Salsola kali L. ssp. Ruthenica (Iljin) Soo) were planted and treated preemergence with test chemicals formulated in a non-phytotoxic solvent mixture which included a surfactant.
(§2) At the same time, plants selected from these weed species were treated with postemergence applications of some of the test chemicals formulated in the same manner. Plants ranged in height from 2 to 18 cm (1- to 4-leaf stage) for postemergence treatments. Treated plants and controls were maintained in a greenhouse for 12 to 14 days, after which time all species were compared to controls and visually evaluated. Plant response ratings, summarized in Table E, are based on a scale of 0 to 100 where 0 is no effect and 100 is complete control. A dash (-) response means no test result.

kochia = experiment: Test E pre-/postemergence herbicide test; type: in vivo, Kochia scoparia; settings: Preemergence
Source text: as §1, §2

pitted morningglory = experiment: Test E pre-/postemergence herbicide test; type: in vivo, Ipomoea lacunosa
Source text: as §1, §2

common ragweed = experiment: Test E pre-/postemergence herbicide test; type: in vivo, Ambrosia elatior
Source text: as §1, §2

dallisgrass = experiment: Test E pre-/postemergence herbicide test; type: in vivo, Paspalum dilatatum
Source text: as §1, §2

barnyardgrass = experiment: Test E pre-/postemergence herbicide test; type: in vivo, Echinochloa crus-galli
Source text: as §1, §2

Canada horseweed = experiment: Test E pre-/postemergence herbicide test; type: in vivo, Erigeron Canadensis
Source text: as §1, §2

field bindweed = experiment: Test E pre-/postemergence herbicide test; type: in vivo, Convolvulus arvensis
Source text: as §1, §2

common mallow = experiment: Test E pre-/postemergence herbicide test; type: in vivo, Malva sylvestris
Source text: as §1, §2

downy bromegrass = experiment: Test C postemergence herbicide test; type: in vivo, Bromus tectorum
In short: (§3)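 Greenhouse test with a 12–14 day hold after application and visual comparison with controls. Emerged plants were 1- to 4-leaf stage (2–18 cm) when sprayed postemergence, and the paddy barnyardgrass was at 2 leaves under flooded conditions. 100 = complete control.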

wheat = experiment: Test C postemergence herbicide test; type: in vivo, Triticum aestivum
In short: as §3

wild oat = experiment: Test C postemergence herbicide test; type: in vivo, Avenafatua
In short: as §3

[1] = Postemergence, 500 g ai/ha, scale 0 to 100
[2] = Postemergence, 250 g ai/ha, scale 0 to 100
[3] = Preemergence, 62 g ai/ha, scale 0 to 100
[4] = Preemergence, 125 g ai/ha, scale 0 to 100
[5] = Preemergence, 250 g ai/ha, scale 0 (no effect) to 100 (complete control)
[6] = Preemergence, 500 g ai/ha, scale 0 (no effect) to 100 (complete control)
[7] = postemergence, 125 g ai/ha, scale 0 to 100
[8] = postemergence, 62 g ai/ha, scale 0 to 100
[9] = Postemergence, 250 g ai/ha, scale 0 to 100, 0 no effect, 100 complete control
[10] = postemergence, 31 g ai/ha, scale 0 to 100
[11] = Postemergence, 500 g ai/ha, scale 0 to 100, 0 no effect, 100 complete control

## CCc1nn(C(C)(C)C)cc1C(=O)Nc1cc(C(=O)N(C)C)ccc1F [Compound 222, N-[5-[(dimethylamino)carbonyl]-2-fluorophenyl]-1-(1,1-dimethylethyl)-3-ethyl-1H-pyrazole-4-carboxamide]
Large crabgrass; [1]
  Plant response rating, Crabgrass, Large: 100
Large crabgrass; [2]
  Plant response rating, Crabgrass, Large: 90
Large crabgrass; [3]
  Plant response rating, Crabgrass, Large: 70
Large crabgrass; [4]
  Plant response rating, Crabgrass, Large: 100
Large crabgrass; [5]
  Plant response rating, Crabgrass, Large: 100
Large crabgrass; [6]
  Plant response rating, Crabgrass, Large: 100
Large crabgrass; [7]
  Plant response rating, Crabgrass, Large: 80
Large crabgrass; [8]
  Plant response rating, Crabgrass, Large: 60
kochia; 62 g ai/ha, scale 0 to 100
  Plant response rating, Kochia: 30
kochia; 125 g ai/ha, scale 0 to 100
  Plant response rating, Kochia: 100
kochia; 250 g ai/ha, scale 0 (no effect) to 100 (complete control)
  Plant response rating, Kochia: 100
kochia; 500 g ai/ha, scale 0 (no effect) to 100 (complete control)
  Plant response rating, Kochia: 100
Pitted morningglory; [1]
  Plant response rating, Morningglory: 90
Pitted morningglory; [2]
  Plant response rating, Morningglory: 60
Pitted morningglory; [4]
  Plant response rating, Morningglory: 30
Pitted morningglory; [5]
  Plant response rating, Morningglory: 40
Pitted morningglory; [6]
  Plant response rating, Morningglory: 95
Pitted morningglory; [7]
  Plant response rating, Morningglory: 40
Pitted morningglory; [8]
  Plant response rating, Morningglory: 20
Common ragweed; [2]
  Plant response rating, Ragweed: 70
Common ragweed; [3]
  Plant response rating, Ragweed: 30
Common ragweed; [4]
  Plant response rating, Ragweed: 85
Common ragweed; [5]
  Plant response rating, Ragweed: 95
Common ragweed; [6]
  Plant response rating, Ragweed: 95
Common ragweed; [7]
  Plant response rating, Ragweed: 60
Common ragweed; [8]
  Plant response rating, Ragweed: 20
dallisgrass; [1]
  Plant response rating, Dallisgrass: 85
dallisgrass; [2]
  Plant response rating, Dallisgrass: 85
dallisgrass; [3]
  Plant response rating, Dallisgrass: 50
dallisgrass; [4]
  Plant response rating, Dallisgrass: 80
dallisgrass; [5]
  Plant response rating, Dallisgrass: 100
dallisgrass; [6]
  Plant response rating, Dallisgrass: 100
dallisgrass; [7]
  Plant response rating, Dallisgrass: 60
dallisgrass; [8]
  Plant response rating, Dallisgrass: 30
barnyardgrass; [2]
  Plant response rating, Barnyardgrass: 70
barnyardgrass; [3]
  Plant response rating, Barnyardgrass: 50
barnyardgrass; [4]
  Plant response rating, Barnyardgrass: 90
barnyardgrass; [5]
  Plant response rating, Barnyardgrass: 100
barnyardgrass; [6]
  Plant response rating, Barnyardgrass: 100
barnyardgrass; [7]
  Plant response rating, Barnyardgrass: 50
barnyardgrass; [8]
  Plant response rating, Barnyardgrass: 50
Canada horseweed; [1]
  Plant response rating, Horseweed: 100
Canada horseweed; [2]
  Plant response rating, Horseweed: 90
Canada horseweed; [3]
  Plant response rating, Horseweed: 100
Canada horseweed; [4]
  Plant response rating, Horseweed: 100
Canada horseweed; [5]
  Plant response rating, Horseweed: 100
Canada horseweed; [6]
  Plant response rating, Horseweed: 100
Canada horseweed; [7]
  Plant response rating, Horseweed: 40
Canada horseweed; [8]
  Plant response rating, Horseweed: 20
Field bindweed; [2]
  Plant response rating, Bindweed, Field: 95
Field bindweed; [4]
  Plant response rating, Bindweed, Field: 40
Field bindweed; [5]
  Plant response rating, Bindweed, Field: 95
Field bindweed; [6]
  Plant response rating, Bindweed, Field: 95
Field bindweed; [7]
  Plant response rating, Bindweed, Field: 75
Field bindweed; [8]
  Plant response rating, Bindweed, Field: 60
Common mallow; [2]
  Plant response rating, Mallow: 60
Common mallow; [3]
  Plant response rating, Mallow: 70
Common mallow; [4]
  Plant response rating, Mallow: 80
Common mallow; [5]
  Plant response rating, Mallow: 95
Common mallow; [6]
  Plant response rating, Mallow: 95
Common mallow; [7]
  Plant response rating, Mallow: 60
Common mallow; [8]
  Plant response rating, Mallow: 50

## CCn1nc(C(C)(C)C)cc1C(=O)Nc1cccc(C(=O)NCC2CC2)c1 [Compound 62]
Downy bromegrass; [9]
  Plant response rating, Bromegrass, Downy: 30
Downy bromegrass; [7]
  Plant response rating, Bromegrass, Downy: 20
Downy bromegrass; [10]
  Plant response rating, Bromegrass, Downy: 10
Downy bromegrass; [8]
  Plant response rating, Bromegrass, Downy: 20
wheat; [9]
  Plant response rating, Wheat: 10
wheat; [7]
  Plant response rating, Wheat: 10
wheat; [8]
  Plant response rating, Wheat: 10
Wild oat; [9]
  Plant response rating, Oat, Wild: 50
Wild oat; [7]
  Plant response rating, Oat, Wild: 40
Wild oat; [8]
  Plant response rating, Oat, Wild: 30

## CCn1nc(C(C)(C)C)cc1C(=O)Nc1cc(OC(F)(F)F)ccc1F [Compound 338]
Downy bromegrass; [9]
  Plant response rating, Bromegrass, Downy: 40
Downy bromegrass; [11]
  Plant response rating, Bromegrass, Downy: 45
Downy bromegrass; [7]
  Plant response rating, Bromegrass, Downy: 35
Downy bromegrass; [8]
  Plant response rating, Bromegrass, Downy: 30
wheat; [9]
  Plant response rating, Wheat: 35
wheat; [11]
  Plant response rating, Wheat: 45
wheat; [7]
  Plant response rating, Wheat: 25
wheat; [8]
  Plant response rating, Wheat: 25
Wild oat; [9]
  Plant response rating, Oat, Wild: 50
Wild oat; [11]
  Plant response rating, Oat, Wild: 60
Wild oat; [7]
  Plant response rating, Oat, Wild: 45
Wild oat; [8]
  Plant response rating, Oat, Wild: 40

## CCOC(=O)c1cccc(NC(=O)c2cc(C3(C)CC3)nn2CC)c1 [Compound 295]
Downy bromegrass; [9]
  Plant response rating, Bromegrass, Downy: 45
Downy bromegrass; [7]
  Plant response rating, Bromegrass, Downy: 45
Downy bromegrass; [10]
  Plant response rating, Bromegrass, Downy: 45
Downy bromegrass; [8]
  Plant response rating, Bromegrass, Downy: 45
wheat; [9]
  Plant response rating, Wheat: 45
wheat; [7]
  Plant response rating, Wheat: 45
wheat; [8]
  Plant response rating, Wheat: 45
Wild oat; [9]
  Plant response rating, Oat, Wild: 50
Wild oat; [7]
  Plant response rating, Oat, Wild: 50
Wild oat; [8]
  Plant response rating, Oat, Wild: 50
